Source: PubChem BioAssay (NCI)
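In this assay, cells in 96-well plates receive the compound at five concentrations for 48 hours. Endpoints are linearly interpolated between the surrounding concentrations. TGI: concentration producing complete growth inhibition.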

Columns and labels:
Experiment in all cases: NCI tumour cell line growth inhibition, 48 h
HOP-62 NSCLC = system: HOP-62 NSCLC
MDA-N = system: MDA-N
K-562 leukemia = system: K-562 leukemia
BT-549 breast = system: BT-549 breast
RXF 393 renal = system: RXF 393 renal
OVCAR-5 ovarian = system: OVCAR-5 ovarian
CAKI-1 renal = system: CAKI-1 renal
MDA-MB-435 = system: MDA-MB-435
MOLT-4 leukemia = system: MOLT-4 leukemia
NCI-H460 lung = system: NCI-H460 lung
NCI-H23 lung = system: NCI-H23 lung
RPMI-8226 leukemia = system: RPMI-8226 leukemia
HCT-116 colon = system: HCT-116 colon
OVCAR-4 ovarian = system: OVCAR-4 ovarian
SNB-75 CNS = system: SNB-75 CNS
CCRF-CEM leukemia = system: CCRF-CEM leukemia

COc1ccc(-n2c3c(c4cc(O)ccc42)C(=O)c2ccccc2C3=O)cc1
TGI (HOP-62 NSCLC): 12.7 µM | TGI (MDA-N): > 100 µM | TGI (K-562 leukemia): > 100 µM | TGI (BT-549 breast): 31.5 µM | TGI (RXF 393 renal): 18 µM | TGI (OVCAR-5 ovarian): > 100 µM | TGI (CAKI-1 renal): > 100 µM | TGI (MDA-MB-435): > 100 µM | TGI (MOLT-4 leukemia): > 100 µM | TGI (NCI-H460 lung): > 100 µM | TGI (NCI-H23 lung): > 100 µM | TGI (RPMI-8226 leukemia): > 100 µM | TGI (HCT-116 colon): 1.25 µM | TGI (OVCAR-4 ovarian): > 100 µM

c1ccc2[nH]c3[nH]c4[nH]c5ccccc5[nH]c4[nH]c3[nH]c2c1
TGI (HOP-62 NSCLC): > 100 µM | TGI (MDA-N): > 100 µM | TGI (K-562 leukemia): > 100 µM | TGI (BT-549 breast): > 100 µM | TGI (RXF 393 renal): > 100 µM | TGI (SNB-75 CNS): 53.4 µM | TGI (CCRF-CEM leukemia): > 100 µM | TGI (OVCAR-5 ovarian): > 100 µM | TGI (CAKI-1 renal): > 100 µM | TGI (MDA-MB-435): > 100 µM | TGI (MOLT-4 leukemia): > 100 µM | TGI (NCI-H460 lung): > 100 µM | TGI (NCI-H23 lung): > 100 µM | TGI (RPMI-8226 leukemia): > 100 µM | TGI (HCT-116 colon): > 100 µM

CN(C)c1ccc(/C=C2\N=C(N/N=C/c3ccccc3)NC2=O)cc1
TGI (HOP-62 NSCLC): > 100 µM | TGI (MDA-N): > 100 µM | TGI (BT-549 breast): > 100 µM | TGI (RXF 393 renal): 70.4 µM | TGI (SNB-75 CNS): > 100 µM | TGI (CCRF-CEM leukemia): > 100 µM | TGI (OVCAR-5 ovarian): > 100 µM | TGI (CAKI-1 renal): > 100 µM | TGI (MDA-MB-435): > 100 µM | TGI (MOLT-4 leukemia): > 100 µM | TGI (NCI-H460 lung): > 100 µM | TGI (NCI-H23 lung): > 100 µM | TGI (RPMI-8226 leukemia): > 100 µM | TGI (HCT-116 colon): > 100 µM | TGI (OVCAR-4 ovarian): > 100 µM

COc1ccc(C2CC(=O)Oc3ccccc3O2)cc1 (stereo unspecified)
TGI (HOP-62 NSCLC): > 100 µM | TGI (MDA-N): > 100 µM | TGI (K-562 leukemia): > 100 µM | TGI (BT-549 breast): > 100 µM | TGI (RXF 393 renal): > 100 µM | TGI (SNB-75 CNS): > 100 µM | TGI (CCRF-CEM leukemia): > 100 µM | TGI (MDA-MB-435): > 100 µM | TGI (MOLT-4 leukemia): > 100 µM | TGI (NCI-H460 lung): > 100 µM | TGI (NCI-H23 lung): > 100 µM | TGI (RPMI-8226 leukemia): > 100 µM | TGI (HCT-116 colon): > 100 µM | TGI (OVCAR-4 ovarian): > 100 µM

CCCC(=O)N/S(=N/S(=O)(=O)c1ccc(Cl)cc1)C(Cl)(Cl)Cl (stereo unspecified)
TGI (HOP-62 NSCLC): > 100 µM | TGI (MDA-N): > 100 µM | TGI (K-562 leukemia): > 100 µM | TGI (BT-549 breast): > 100 µM | TGI (RXF 393 renal): > 100 µM | TGI (CCRF-CEM leukemia): > 100 µM | TGI (OVCAR-5 ovarian): > 100 µM | TGI (MDA-MB-435): > 100 µM | TGI (MOLT-4 leukemia): > 100 µM | TGI (NCI-H460 lung): > 100 µM | TGI (NCI-H23 lung): > 100 µM | TGI (HCT-116 colon): > 100 µM

O=C1Nc2ccccc2[C@]12C[C@H]2c1ccccn1
TGI (HOP-62 NSCLC): > 100 µM | TGI (MDA-N): > 100 µM | TGI (K-562 leukemia): > 100 µM | TGI (BT-549 breast): > 100 µM | TGI (RXF 393 renal): > 100 µM | TGI (CCRF-CEM leukemia): > 100 µM | TGI (OVCAR-5 ovarian): > 100 µM | TGI (CAKI-1 renal): > 100 µM | TGI (MDA-MB-435): > 100 µM | TGI (MOLT-4 leukemia): > 100 µM | TGI (NCI-H460 lung): > 100 µM | TGI (NCI-H23 lung): > 100 µM | TGI (RPMI-8226 leukemia): > 100 µM | TGI (HCT-116 colon): > 100 µM | TGI (OVCAR-4 ovarian): > 100 µM

NC1=CC(C(=O)c2ccncc2)c2nc3ccccc3nc21 (stereo unspecified)
TGI (HOP-62 NSCLC): > 100 µM | TGI (MDA-N): > 100 µM | TGI (BT-549 breast): > 100 µM | TGI (RXF 393 renal): > 100 µM | TGI (SNB-75 CNS): > 100 µM | TGI (CCRF-CEM leukemia): > 100 µM | TGI (OVCAR-5 ovarian): > 100 µM | TGI (CAKI-1 renal): > 100 µM | TGI (MDA-MB-435): > 100 µM | TGI (MOLT-4 leukemia): > 100 µM | TGI (NCI-H460 lung): > 100 µM | TGI (NCI-H23 lung): > 100 µM | TGI (RPMI-8226 leukemia): > 100 µM | TGI (HCT-116 colon): > 100 µM | TGI (OVCAR-4 ovarian): > 100 µM

COC(=O)/C(C#N)=C1\NC(=O)CC(c2ccccc2)C1C#N (stereo unspecified)
TGI (HOP-62 NSCLC): > 100 µM | TGI (MDA-N): > 100 µM | TGI (K-562 leukemia): > 100 µM | TGI (BT-549 breast): > 100 µM | TGI (RXF 393 renal): > 100 µM | TGI (SNB-75 CNS): > 100 µM | TGI (CCRF-CEM leukemia): > 100 µM | TGI (OVCAR-5 ovarian): > 100 µM | TGI (CAKI-1 renal): > 100 µM | TGI (MOLT-4 leukemia): > 100 µM | TGI (NCI-H460 lung): > 100 µM | TGI (RPMI-8226 leukemia): > 100 µM | TGI (HCT-116 colon): > 100 µM | TGI (OVCAR-4 ovarian): > 100 µM

CS(=O)(=O)c1[nH]nc2[nH]c(=O)[nH]c(=O)c12
TGI (HOP-62 NSCLC): > 10 µM | TGI (MDA-N): > 10 µM | TGI (BT-549 breast): > 10 µM | TGI (RXF 393 renal): > 10 µM | TGI (SNB-75 CNS): > 10 µM | TGI (CCRF-CEM leukemia): > 10 µM | TGI (OVCAR-5 ovarian): > 10 µM | TGI (CAKI-1 renal): > 10 µM | TGI (MDA-MB-435): > 10 µM | TGI (MOLT-4 leukemia): > 10 µM | TGI (NCI-H460 lung): > 10 µM | TGI (NCI-H23 lung): > 10 µM | TGI (HCT-116 colon): > 10 µM | TGI (OVCAR-4 ovarian): > 10 µM

c1ccc([C@@H]2N[C@@]3(CO[Si](c4ccccc4)(c4ccccc4)c4ccccc4)CC[C@H]4CN[C@@H]2[C@H]43)cc1
TGI (HOP-62 NSCLC): 31.2 µM | TGI (MDA-N): 13.1 µM | TGI (K-562 leukemia): > 100 µM | TGI (BT-549 breast): 35.3 µM | TGI (RXF 393 renal): 16.9 µM | TGI (CCRF-CEM leukemia): > 100 µM | TGI (OVCAR-5 ovarian): 31 µM | TGI (CAKI-1 renal): 25.4 µM | TGI (MDA-MB-435): 20.8 µM | TGI (MOLT-4 leukemia): > 100 µM | TGI (NCI-H460 lung): 25 µM | TGI (NCI-H23 lung): 30.5 µM | TGI (RPMI-8226 leukemia): 13.8 µM | TGI (HCT-116 colon): 11.9 µM | TGI (OVCAR-4 ovarian): 29.3 µM

OCCSCc1cc2c(O)c(c1)Cc1cc(CSCCO)cc(c1O)Cc1cc(CSCCO)cc(c1O)Cc1cc(CSCCO)cc(c1O)C2
TGI (HOP-62 NSCLC): 15.6 µM | TGI (MDA-N): 11.8 µM | TGI (K-562 leukemia): > 100 µM | TGI (BT-549 breast): 11.7 µM | TGI (RXF 393 renal): 18.3 µM | TGI (CCRF-CEM leukemia): 68.2 µM | TGI (OVCAR-5 ovarian): 18.9 µM | TGI (CAKI-1 renal): 9.63 µM | TGI (MDA-MB-435): 9.04 µM | TGI (MOLT-4 leukemia): > 100 µM | TGI (NCI-H460 lung): 7.84 µM | TGI (NCI-H23 lung): 16.7 µM | TGI (RPMI-8226 leukemia): 30.6 µM | TGI (HCT-116 colon): 13 µM | TGI (OVCAR-4 ovarian): 13.9 µM

CCCCSC1=N/C(=C\c2ccco2)C(=O)N1
TGI (HOP-62 NSCLC): > 100 µM | TGI (MDA-N): > 100 µM | TGI (BT-549 breast): > 100 µM | TGI (RXF 393 renal): 64.7 µM | TGI (SNB-75 CNS): > 100 µM | TGI (CCRF-CEM leukemia): > 100 µM | TGI (OVCAR-5 ovarian): > 100 µM | TGI (CAKI-1 renal): > 100 µM | TGI (MDA-MB-435): > 100 µM | TGI (MOLT-4 leukemia): > 100 µM | TGI (NCI-H460 lung): > 100 µM | TGI (NCI-H23 lung): > 100 µM | TGI (RPMI-8226 leukemia): > 100 µM | TGI (HCT-116 colon): > 100 µM | TGI (OVCAR-4 ovarian): > 100 µM

CN1CC2=C(NC(=S)NC2c2ccc(Cl)cc2)/C(=C/c2ccc(Cl)cc2)C1 (stereo unspecified)
TGI (HOP-62 NSCLC): 36.4 µM | TGI (MDA-N): 34.9 µM | TGI (K-562 leukemia): 32.7 µM | TGI (BT-549 breast): 48.6 µM | TGI (SNB-75 CNS): 31.2 µM | TGI (CCRF-CEM leukemia): 30.9 µM | TGI (OVCAR-5 ovarian): 31.4 µM | TGI (CAKI-1 renal): 32.4 µM | TGI (MDA-MB-435): 30.1 µM | TGI (MOLT-4 leukemia): 30.2 µM | TGI (NCI-H460 lung): 28.1 µM | TGI (NCI-H23 lung): 43.8 µM | TGI (RPMI-8226 leukemia): 92.4 µM | TGI (HCT-116 colon): 29.2 µM

O=c1n(-c2ccccc2)c(=O)n2n1C1CCC2CC1
TGI (HOP-62 NSCLC): > 100 µM | TGI (MDA-N): > 100 µM | TGI (K-562 leukemia): > 100 µM | TGI (BT-549 breast): > 100 µM | TGI (SNB-75 CNS): > 100 µM | TGI (CCRF-CEM leukemia): > 100 µM | TGI (OVCAR-5 ovarian): > 100 µM | TGI (CAKI-1 renal): > 100 µM | TGI (MDA-MB-435): > 100 µM | TGI (MOLT-4 leukemia): > 100 µM | TGI (NCI-H460 lung): > 100 µM | TGI (NCI-H23 lung): > 100 µM | TGI (RPMI-8226 leukemia): > 100 µM | TGI (HCT-116 colon): > 100 µM

CCOC(=O)c1nnsc1NC(=O)Nc1ccc(Cl)cc1
TGI (HOP-62 NSCLC): > 100 µM | TGI (MDA-N): > 100 µM | TGI (K-562 leukemia): > 100 µM | TGI (BT-549 breast): > 100 µM | TGI (RXF 393 renal): > 100 µM | TGI (SNB-75 CNS): 88 µM | TGI (CCRF-CEM leukemia): > 100 µM | TGI (OVCAR-5 ovarian): > 100 µM | TGI (MDA-MB-435): > 100 µM | TGI (MOLT-4 leukemia): > 100 µM | TGI (NCI-H460 lung): 32.1 µM | TGI (NCI-H23 lung): > 100 µM | TGI (RPMI-8226 leukemia): > 100 µM | TGI (HCT-116 colon): 70.5 µM | TGI (OVCAR-4 ovarian): 51.2 µM
